Source: PMC4390550 (Journal of the American Chemical Society, 2015)
Counter-ions that a name gives are not always drawn.

Tests used:
GABA-AT [1] = target: T1, GABA-AT (Sus scrofa, UniProt P80147); test: Inhibition of GABA-AT, coupled assay with SSDH, Ki by Cheng-Prusoff; format: biochemical, pig
GABA-AT [2] = target: T1, GABA-AT; test: Time-dependent inhibition; format: biochemical, pig; settings: preliminary in vitro results
infantile spasms = settings: cited from earlier work
[3] = system: aspartate aminotransferase; settings: cited from earlier work
alanine aminotransferase = settings: cited from earlier work
GABA-AT [4] = settings: aromatization mechanism; cited from earlier work

T1 sequence (P80147 29-500): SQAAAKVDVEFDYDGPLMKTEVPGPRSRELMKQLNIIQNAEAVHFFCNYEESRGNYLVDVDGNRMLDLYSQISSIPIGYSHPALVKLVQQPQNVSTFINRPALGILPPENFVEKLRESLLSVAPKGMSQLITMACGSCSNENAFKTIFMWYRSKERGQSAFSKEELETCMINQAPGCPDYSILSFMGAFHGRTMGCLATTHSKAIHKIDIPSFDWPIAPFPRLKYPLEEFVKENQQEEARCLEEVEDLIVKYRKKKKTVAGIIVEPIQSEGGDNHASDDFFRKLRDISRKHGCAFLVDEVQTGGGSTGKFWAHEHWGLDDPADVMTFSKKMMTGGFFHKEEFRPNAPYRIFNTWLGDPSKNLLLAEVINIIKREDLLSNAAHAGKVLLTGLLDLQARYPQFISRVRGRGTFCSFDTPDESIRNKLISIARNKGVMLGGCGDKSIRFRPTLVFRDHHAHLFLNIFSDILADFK

With `N[C@@H]1CC[C@H](C(=O)O)C1` [Compound 39, (1S,3R)-3-aminocyclopentane-1-carboxylic acid] as the compound, how does the “reversible inhibition of GABA-AT (in words)” value (GABA-AT [1]; preliminary in vitro results) read?
Its value is “good competitive inhibitor”.

What about the “inactivation of GABA-AT (in words)” value (GABA-AT [2]) of the same compound?
The value was “not an inactivator”.

Which “inactivation of GABA-AT (in words)” value (GABA-AT [2]) does the source give for `Cl.N[C@@H]1CS[C@@H](C(=O)O)C1` [Compound 18, (2R,4S)-4-Aminotetrahydrothiophene-2-carboxylic acid hydrochloride] here?
Its value is “potent inactivators”.

Which “time spasms suppression stayed effective” value (infantile spasms; rat) does the source give for `C=CC(N)CCC(=O)O` (centres unmarked) [vigabatrin] here?
The value was 1 days.

For `N[C@H]1C[C@@H](C(=O)O)CC1=C(F)F` [Compound 16], which margin of safety (infantile spasms; compared with vigabatrin) is on record?
Its margin of safety is “much larger margin of safety than vigabatrin”.

What about the “doses that suppressed spasms” value (infantile spasms; rat) of the same compound?
The value was 0.1 to 1 mg/kg/day.

And the “effective doses lower than those for vigabatrin” value (infantile spasms; rat)?
The value was over 100 fold.

What about the “time spasms suppression stayed effective” value (infantile spasms; rat) of the same compound?
Its value is 3 days.

What about the “inactivation or inhibition of aspartate aminotransferase” value [3] of the same compound?
The value was “did not inactivate or inhibit”.

And the “inactivation or inhibition of alanine aminotransferase” value (alanine aminotransferase)?
The value was “did not inactivate or inhibit”.

With `Cl.N[C@@H]1CS[C@H](C(=O)O)C1` [Compound 17, (2S,4S)-4-Aminotetrahydrothiophene-2-carboxylic acid hydrochloride] as the compound, how does the “inactivation of GABA-AT (in words)” value (GABA-AT [2]) read?
Its value is “potent inactivators”.

For `N[C@H]1CC(C(=O)O)S(=O)(=O)C1` (stereo partly drawn) [Compound 19, (4S)-4-Aminotetrahydrothiophene-2-carboxylic acid 1,1-dioxide hydrochloride], which Ki (GABA-AT [1]; reversible inhibition, pH 8.5, 25 °C, 10 mM GABA) is on record?
The Ki was 3.2 ± 0.7 mM.

For `N[C@H]1C=C(C(=O)O)SC1` [(S)-4-Amino-4,5-dihydro-2-thiophenecarboxylic acid], which “inactivation of aspartate aminotransferase (in words)” value [3] is on record?
Its value is “inactivator”.

And the “inactivation of GABA-AT (in words)” value (GABA-AT [4])?
The value was “known inactivator”.
